Test results taken from patent US5441883A, “A3 adenosine receptor, DNA, and uses” (priority 1993, dated 1995).
Read-outs that look alike come from different tables or passages of the source.

Experiments:
A3 adenosine receptor [1] = molecular target: T1, A3 adenosine receptor (Rattus norvegicus, UniProt P28647); assay: biochemical; type: binding; conditions: for inhibition at 1000 µM: read-out: inhibition of [125I]APNEA binding; for inhibition at 100 µM: read-out: inhibition of specific [125I]APNEA binding; for pharmacological profile of inhibition of [125I]APNEA binding: rank order; for IC50: 0.5 nM [125I]APNEA
T1 sequence (P28647 1-320): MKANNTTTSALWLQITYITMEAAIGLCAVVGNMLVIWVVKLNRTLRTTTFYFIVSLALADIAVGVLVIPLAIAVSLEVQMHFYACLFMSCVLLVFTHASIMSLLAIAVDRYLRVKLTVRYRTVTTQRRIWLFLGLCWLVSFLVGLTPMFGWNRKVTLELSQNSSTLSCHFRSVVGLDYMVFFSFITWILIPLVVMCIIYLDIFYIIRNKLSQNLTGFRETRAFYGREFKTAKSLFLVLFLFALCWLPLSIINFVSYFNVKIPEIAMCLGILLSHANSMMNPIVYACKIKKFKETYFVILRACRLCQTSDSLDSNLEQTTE
Experimental: FIGS. 4A and 4B illustrates competitive binding assays using stably transfected CHO cell membrane preparations.
(§1) Cell membranes were prepared as follows. COS-7 cells (transient expressors) were harvested 48 hrs after transfection, whereas CHO cells (stable expressors) were grown to confluence in 150 mm plates. Cells were washed twice with ice-cold HOB buffer [15 mM Tris-HCl (pH 7.4), 5 mM MgCl2, 1 mM EDTA] and scraped off plates with a rubber policeman. Cells were then collected by centrifugation at 1,200 rpm (xx g), resuspended in HOB buffer, transferred to a Dounce homogenizer on ice, and homogenized for 20 sec with a CorTarge homogenizer (Eberbach Inc., Ann Arbor, Mich.) at the #3 speed setting. The homogenate was then centrifuged at 2,000 rpm (xx g) for 10 min at 4° C. The supernatant was saved and the pellet resuspended in HOB buffer and subjected to a second round of homogenation. The second homogenate was centrifuged at 2000 rpm (xx g) for 10 min and the pellet was discarded. Supernatants were pooled and centrifuged at 34,000 rpm (xx g) for 45 min. These crude membrane pellets were resuspended in TEM buffer [50 mM Tris-HCl (pH 7.4), 5 mM MgCl2, 1 mM EDTA]. Adenosine deaminase (Sigma, St Louis, Mo.) was added to the membrane suspensions to a concentration of 2 Units/ml and incubated at 37° C. for 30 min. The membrane suspension was subsequently recentrifuged at 34,000 rpm (xx g) for 45 min. The resulting pellet was resuspended in TEM buffer at a protein concentration of about 1 mg/ml and stored in small aliquots at -70° C. The protein concentration was measured according to the method of Lowry et al. (1954, J. Biol. Chem. 207: 1-XXX) using bovine serum albumin as a standard.
Radioligand binding assays were carried out in duplicate in 500 μl of a solution containing (at final concentrations) 50 mM Tris-HCl (pH 7.4), 5 mM MgCl2, 1 mM EDTA, 0.025 % ascorbic acid, radioligands, and appropriate drugs. […] ([aH]XAC), [^3 H]-labeled 2-[4-(2-[(4-aminophenyl)methylcarbobylamino]ethylaminocarbonyl)ethyl)phenyl]ethylamino-5'-N-ethylcarboxamidoadenosine ([^3 H]PAPA-APEC), and [^3 H]-labeled [2-(4-(2-carboxyethyl)phenylethyamino)5'-N-ethylcarboxamidoadenosine ([^3 H]CGS21680). Receptor binding was initiated by the addition of membrane preparations in an amount equivalent to 20-100 μg protein, and carried out at 37° C. for 1 hr. Nonspecific binding was determined in the presence of 10 μM R-N^6 -phenyl-2-propyladenosine (R-PIA). After incubation, samples were filtered through glass fiber filters (Schleicher and Schuell #32) and washed three times with 4 ml ice-cold 10 mM TrisoHCl (pH 7.4). Radioactivity retained on the filters were counted using a Beckman LS6800 scintillation counter (Beckman Instruments, Palo Alto, Calif.). […] A LIGAND computer program was used for data analysis and curve fitting (Munson & Rodband, 1980, Anal. Biochem. 107: 220-225).
The A3 receptor was then characterized using competition assays between [^125 I]APNEA A3 receptor binding versus a series of other adenosine receptor ligands. Labeled APNEA was present in these assays at 0.5 nM; unlabled competitors were present at varying concentrations as shown in FIG. 4A.

A3 adenosine receptor [2] = molecular target: T1, A3 adenosine receptor; assay: cell-based; type: cell-based; conditions: for effect on forskolin-stimulated cAMP: 100 μM ATP or ADP; for inhibitory effect of R-PIA and NECA on forskolin-stimulated cAMP production after pertussis toxin pretreatment: 100 ng/ml pertussis toxin, 18 hours
Experimental: The concentrations of adenosine agonists used are 100 nM and the concentration of forskolin is 1 μM. Values are obtained from triplicate plates and shown as mean ±S.E.
The cell were not or pretreated with 100 ng/ml pertussis toxin for 18 hours. The concentration of forskolin and adenosine agonists used are as in FIG. 5.
It is known that the A 1 adenosine receptor inhibits adenylate cyclase activity and the A2 adenosine receptor stimulates adenylate cyclase respectively (Stiles, ibid.; Williams, ibid.).
Cells were grown to about 80% confluence in 150 mm dishes, washed twice with Ca^++ and Mg^++ -free PBS buffer and detached from plates with PBS buffer containing 0.02% EDTA. Cells were collected by centrifugation at 800 rpm (xx g) for 10 min at 4° C. and resuspended in an appropriate volume of KRH buffer [140 mM NaCl, 5 mM KCl , 2 mM CaCl2, 1.2 mM MgSO4, 1.2 mM KH2 PO4, 6 mM glucose, 25 mM Hepes-NaOH (pH 7.4)]. The cells were washed once with KRH buffer and resuspended in KRH buffer at a concentration of 10^7 cells/ml. Each of 100 μl aliquots of this cell suspension were added to a glass tube containing 100 μl KRH+200 μM Ro 20-1724 and incubated at 37° C. for 10 min. Prewarmed 200 μl KRH containing 200 μm Ro 20-1724 and test drugs were then added to the cells and mixed. After incubation at 37° C. for 20 min, 400 μl 10.5 mM NaAc (pH 6.2) were added and the glass tubes transferred to a boiling water bath. The incubated cell suspension were boiled for 20 min, and the tubes were then cooled to room temperature and centrifuged at 3000 rpm (xx g) for 15 min.
For experiments using pertussis toxin pretreatment, aseptic pertussis toxin (Sigma Chemical Co., St. Louis, Mo.) was dissolved in sterile water and added to the medium to a final concentration of 100 ng/ml. Toxin treatment was maintained for approximately 18 hours. The dishes were rinsed once with media immediately prior to the addition of adenosine receptor ligands and processed as described above.

A3 adenosine receptor [3] = molecular target: T1, A3 adenosine receptor; assay: Direct radioligand binding / Scatchard analysis, stably transfected CHO cell membranes; conditions: for specific, high affinity binding to the A3 receptor: radiolabeled ligands
From the text: FIG. 3 illustrates a Scatchard plot of radioligand binding assays for the A3 adenosine receptor performed with the adenosine radioligand [^125 I]APEA and membrane preparations from stably transfected CHO cells.
The entire coding region of the A3 cDNA insert from R226 was excised from pGem226 and subcloned into either the HindIII/XbaI sites of an RC-RSV expression vector (Invitrogene, San Diego, Calif.) or the HindIII/SmaI sites of pBC12BI (Cullen, 1987, Meth. Enzym. 152: 684-704). The resulting plasmids were called Rc-RSV226 and pBC226 respectively. For transient expression in COS-7 cells, pBC226 plasmid DNA was prepared in large-scale through one cycle of CsCl gradient ultracentrifugation and 45 μg pBC226 DNA were transfected into each 150mm dish of COS-7 cells according to the method of Chen and Okayama (1987, Molec. Cell Biol. 7: 2745-2752). For stable expression in CHO cells, 1 μg Rc-RSV226 plasmid DNA isolated from a small-scale preparation was purified using the Prep-A-Gene kit (Bio-Rad) and transfected into CHO cells by the CaPO4 method (Graham and van der Eb, 1973, Virol. 52: 456-463). After transfection, cells were cultured in DMEM (COS-7 cells) or F-12 (CHO cells) media supplemented with 10% fetal calf serum in a 3% CO2 atmosphere at 37° C. For stable transfection, selection was performed with neomycin (G418; SOURCE) at a concentration of 700 μg/ml; selection was started 72 hr after transfection and continued for 3 weeks. Cell colonies were screened for expression of the A3 adenosine receptor from the R226 expression vectors described herein by Northern blot hybridization of total cellular RNA with random-primed PCR226 probe (Maniatis et al., ibid.).
as §1
Radioligand binding assays were carried out in duplicate in 500 μl of a solution containing (at final concentrations) 50 mM Tris-HCl (pH 7.4), 5 mM MgCl2, 1 mM EDTA, 0.025 % ascorbic acid, radioligands, and appropriate drugs. […] ([aH]XAC), [^3 H]-labeled 2-[4-(2-[(4-aminophenyl)methylcarbobylamino]ethylaminocarbonyl)ethyl)phenyl]ethylamino-5'-N-ethylcarboxamidoadenosine ([^3 H]PAPA-APEC), and [^3 H]-labeled [2-(4-(2-carboxyethyl)phenylethyamino)5'-N-ethylcarboxamidoadenosine ([^3 H]CGS21680). Receptor binding was initiated by the addition of membrane preparations in an amount equivalent to 20-100 μg protein, and carried out at 37° C. for 1 hr.

Compound: Nc1ncnc2c1ncn2[C@H]1C[C@H](O)[C@@H](CO)O1 [2-deoxyadenosine]
- inhibition at 1000 µM (A3 adenosine receptor [1]; 1 mM): < 20%

Compound: CSc1nc(N)c2ncn([C@@H]3O[C@H](COP(=O)(O)O)[C@@H](O)[C@H]3O)c2n1 [2-methyl-S-AMP]
- inhibition of [125I]APNEA binding (A3 adenosine receptor [1]; 1 mM): < 20%

Compound: Nc1ncnc2c1ncn2[C@@H]1O[C@H](COP(=O)(O)OP(=O)(O)O)[C@@H](O)[C@H]1O [ADP]
- inhibition at 100 µM (A3 adenosine receptor [1]; 100 μM): 25%
- pharmacological profile of inhibition of [125I]APNEA binding (A3 adenosine receptor [1]): R-PIA=NECA>S-PIA>adenosine>ATP=ADP
- effect on forskolin-stimulated cAMP (A3 adenosine receptor [2]): had no effect

Compound: Nc1ncnc2c1ncn2[C@@H]1O[C@H](COP(=O)(O)OP(=O)(O)CP(=O)(O)O)[C@@H](O)[C@H]1O [AMP-PCP]
- inhibition at 1000 µM (A3 adenosine receptor [1]): < 20%

Compound: Nc1ccc(CCNc2ncnc3c2ncn3[C@@H]2O[C@H](CO)[C@@H](O)[C@H]2O)cc1I [APNEA, N^6-2-(4-amino-3-iodo-phenyl) ethyladenosine]
- saturable binding (Scatchard plot) (A3 adenosine receptor [3]; [125I]APNEA, stably transfected CHO membranes): 225 fmol/mg
- Kd (A3 adenosine receptor [3]; [125I]APNEA, stably transfected CHO membranes, read-out: Kd (Scatchard plot analysis)): 15.5 ± 2.4 nM
- affinity at A3 compared with other, well-characterized A1 receptors (A3 adenosine receptor [3]; comparison with literature A1 receptors (Stiles et al., 1985)): about ten-fold lower
- specific, high affinity binding to the A3 receptor (A3 adenosine receptor [3]; stably transfected CHO membranes): saturable and high affinity binding
- specific, high affinity binding to the A3 receptor (A3 adenosine receptor [3]; stably transfected CHO membranes, listed as [^125 I]APNEA): only adenosine receptor ligand to show specific, high affinity binding to the A3 receptor

Compound: Nc1ncnc2c1ncn2[C@@H]1O[C@H](COP(=O)(O)OP(=O)(O)OP(=O)(O)O)[C@@H](O)[C@H]1O [ATP]
- pharmacological profile of inhibition of [125I]APNEA binding (A3 adenosine receptor [1]): R-PIA=NECA>S-PIA>adenosine>ATP=ADP
- inhibition at 100 µM (A3 adenosine receptor [1]): 50%
- effect on forskolin-stimulated cAMP (A3 adenosine receptor [2]): had no effect

Compound: Nc1ncnc2c1ncn2[C@@H]1O[C@H](COP(=O)(O)OP(=O)(O)NP(=O)(O)O)[C@@H](O)[C@H]1O [App(NH)p]
- inhibition at 1000 µM (A3 adenosine receptor [1]; 1 mM): < 20%

Compound: Nc1nc2c(ncn2[C@@H]2O[C@H](COP(=O)(O)OP(=O)(O)NP(=O)(O)O)[C@@H](O)[C@H]2O)c(=O)[nH]1 [Gpp(NH)p]
- competition for labeled APNEA binding (A3 adenosine receptor [1]; Gpp(NH)p, varying concentrations): 60-70%
- IC50 (A3 adenosine receptor [1]; Table I and text): 1000 nM

Compound: CC(C)Cn1c(=O)n(C)c(=O)c2[nH]cnc21 [IBMX]
- ability to compete with [125I]APNEA for A3 receptor binding (A3 adenosine receptor [1]; 100 μM): none of the methylxanthines tested were capable of competing with labeled APNEA

Compound: C[C@H](Cc1ccccc1)Nc1ncnc2c1ncn2[C@@H]1O[C@H](CO)[C@@H](O)[C@H]1O [R-PIA]
- IC50 (A3 adenosine receptor [1]; Table I): 63 ± 19 nM
- pharmacological profile of inhibition of [125I]APNEA binding (A3 adenosine receptor [1]): R-PIA=NECA>S-PIA>adenosine>ATP=ADP
- inhibitory effect of R-PIA and NECA on forskolin-stimulated cAMP production after pertussis toxin pretreatment (A3 adenosine receptor [2]): almost completely abolished
- inhibition of forskolin-stimulated cAMP accumulation (A3 adenosine receptor [2]; 1 μM forskolin, 100 nM agonist): 20-50%
- EC50 (A3 adenosine receptor [2]; Table II): 18 ± 5.6 nM

Compound: C[C@@H](Cc1ccccc1)Nc1ncnc2c1ncn2[C@@H]1O[C@H](CO)[C@@H](O)[C@H]1O [S-PIA]
- IC50 (A3 adenosine receptor [1]; Table I): 1140 ± 490 nM
- pharmacological profile of inhibition of [125I]APNEA binding (A3 adenosine receptor [1]): R-PIA=NECA>S-PIA>adenosine>ATP=ADP

Compound: O=c1ccn([C@@H]2O[C@H](COP(=O)(O)OP(=O)(O)OP(=O)(O)O)[C@@H](O)[C@H]2O)c(=O)[nH]1 [UTP]
- inhibition at 1000 µM (A3 adenosine receptor [1]; 1 mM): < 20%

Compound: C[N+](C)(C)CCOC(N)=O [carbacol]
- ability to compete with [125I]APNEA for A3 receptor binding (A3 adenosine receptor [1]; 100 μM): failed to compete with labeled APNEA

Compound: NCCc1ccc(O)c(O)c1 [dopamine]
- ability to compete with [125I]APNEA for A3 receptor binding (A3 adenosine receptor [1]; 100 μM): failed to compete with labeled APNEA

Compound: CC(C)NCC(O)c1ccc(O)c(O)c1 (centres unmarked) [isoproterenol]
- ability to compete with [125I]APNEA for A3 receptor binding (A3 adenosine receptor [1]; 100 μM): failed to compete with labeled APNEA

Compound: Cc1ccc(N(CC2=NCCN2)c2cccc(O)c2)cc1 [phentoamine]
- ability to compete with [125I]APNEA for A3 receptor binding (A3 adenosine receptor [1]; 100 μM): failed to compete with labeled APNEA

Compound: NCCc1c[nH]c2ccc(O)cc12 [serotonin]
- ability to compete with [125I]APNEA for A3 receptor binding (A3 adenosine receptor [1]; 100 μM): failed to compete with labeled APNEA

Compound: pertussis toxin
- inhibitory effect of R-PIA and NECA on forskolin-stimulated cAMP production after pertussis toxin pretreatment (A3 adenosine receptor [2]): almost completely abolished
